The values below come from patent US20250382344A1, “Soluble GLP1/GIP/NPY2 Receptor Triple Agonists” (Boehringer Ingelheim International GmH, priority 2024, published 2025).

The first data set is described as follows: Solubility in 0.1 M phosphate buffer at pH 7. In kind it is physicochemical. Particulars: 0.1 M phosphate buffer at pH 7, 10 mg/mL final peptide concentration, shaking 2 hours at room temperature, peptides as TFA-salts; measured sample pH 6.5-7.0. The method, then:
Peptides (as TFA-salts) were weighed out in a filter unit (Mini-UniPrep Syringeless Filter 0.45 μm, Whatman PVDF), and 0.1 M phosphate buffer at pH 7 was added to achieve 10 mg/mL final peptide concentration. The peptides were dissolved by shaking the filter units horizontally at 600 rpm for 2 hours at room temperature. Samples were then filtered to remove any insoluble particles. Controls were prepared by weighing out the corresponding peptide solid material and dissolving it in an appropriate vehicle (e.g. ACN:H2O) to a final concentration of 1 mg/mL. Both, the control and sample were analyzed by reversed phase chromatography. The area under the peak of the sample was compared to the control and the solubility was calculated based on that ratio. The pH was measured and recorded for each sample.
For `CC[C@H](C)[C@H](NC(=O)[C@H](CC(C)C)NC(=O)[C@H](Cc1c[nH]cn1)NC(=O)[C@H](CCCNC(=N)N)NC(=O)[C@@H](NC(=O)[C@H](Cc1ccccc1)NC(=O)[C@H](C)NC(=O)C(C)(C)NC(=O)[C@H](CCC(=O)O)NC(=O)[C@H](C)NC(=O)[C@H](CCC(N)=O)NC(=O)[C@H](CCCCN)NC(=O)[C@H](CCC(=O)O)NC(=O)[C@H](CC(C)C)NC(=O)C(C)(C)NC(=O)[C@@H](NC(=O)[C@H](CO)NC(=O)[C@H](Cc1ccc(O)cc1)NC(=O)[C@H](CC(=O)O)NC(=O)[C@H](CO)NC(=O)[C@@H](NC(=O)[C@H](Cc1ccccc1)NC(=O)[C@@H](NC(=O)CNC(=O)[C@H](CCC(=O)O)NC(=O)C(C)(C)NC(=O)[C@@H](N)Cc1ccc(O)cc1)[C@@H](C)O)[C@@H](C)O)[C@@H](C)CC)C(C)C)C(=O)N[C@@H](CC(N)=O)C(=O)N[C@@H](CCCCNC(=O)[C@@H](N)CCCCNC(=O)[C@@H](N)CCCCNC(=O)CC[C@H](NC(=O)CC[C@H](NC(=O)CC[C@H](NC(=O)CC[C@H](NC(=O)CC[C@H](NC(=O)CC[C@H](NC(=O)CCCCCCCCCCCCCCCCCCC(=O)O)C(=O)O)C(=O)O)C(=O)O)C(=O)O)C(=O)O)C(=O)O)C(=O)NC(C)(C)C(=O)N[C@H](C(=O)N[C@@H](CCCNC(=N)N)C(=O)N[C@@H](CCC(N)=O)C(=O)N[C@@H](CCCNC(=N)N)C(=O)N[C@@H](Cc1ccc(O)cc1)C(N)=O)[C@@H](C)O` [Compound 82, Y-Aib-E-G-T-F-T-S-D-Y-S-I-Aib-L-E-K-Q-A-E-Aib-A-F-V-R-H-L-I-N-K(1,3)-Aib-T-R-Q-R-Y-NH2.C20DA-gGlu-gGlu-gGlu-gGlu-gGlu-gGlu-eLys-eLys(1,2)], the solubility at 2 h amounted to 9000 µg/mL. The same measure, in the same setting: under `CC[C@H](C)[C@H](NC(=O)[C@H](CC(C)C)NC(=O)[C@H](Cc1c[nH]cn1)NC(=O)[C@H](CCCNC(=N)N)NC(=O)[C@@H](NC(=O)[C@H](Cc1ccccc1)NC(=O)[C@H](C)NC(=O)C(C)(C)NC(=O)[C@H](CCC(N)=O)NC(=O)[C@H](C)NC(=O)[C@H](CCC(N)=O)NC(=O)[C@H](CCCCN)NC(=O)[C@H](CCC(=O)O)NC(=O)[C@H](CC(C)C)NC(=O)C(C)(C)NC(=O)[C@@H](NC(=O)[C@H](CO)NC(=O)[C@H](Cc1ccc(O)cc1)NC(=O)[C@H](CC(=O)O)NC(=O)[C@H](CO)NC(=O)[C@@H](NC(=O)[C@H](Cc1ccccc1)NC(=O)[C@@H](NC(=O)[C@H](C)NC(=O)[C@H](CCC(=O)O)NC(=O)C(C)(C)NC(=O)[C@@H](N)Cc1ccc(O)cc1)[C@@H](C)O)[C@@H](C)O)[C@@H](C)CC)C(C)C)C(=O)N[C@@H](CC(N)=O)C(=O)N[C@@H](CCCCNC(=O)[C@@H](N)CCCCNC(=O)CC[C@H](NC(=O)CC[C@H](NC(=O)CC[C@H](NC(=O)CC[C@H](NC(=O)CC[C@H](NC(=O)CC[C@H](NC(=O)CCCCCCCCCCCCCCCCC(=O)O)C(=O)O)C(=O)O)C(=O)O)C(=O)O)C(=O)O)C(=O)O)C(=O)NC(C)(C)C(=O)N[C@H](C(=O)N[C@@H](CCCNC(=N)N)C(=O)N[C@@H](CCC(N)=O)C(=O)N[C@@H](CCCNC(=N)N)C(=O)N[C@@H](Cc1ccc(O)cc1)C(N)=O)[C@@H](C)O` [Compound 93, Y-Aib-E-A-T-F-T-S-D-Y-S-I-Aib-L-E-K-Q-A-Q-Aib-A-F-V-R-H-L-I-N-K(1,3)-Aib-T-R-Q-R-Y-NH2.C18DA-gGlu-gGlu-gGlu-gGlu-gGlu-gGlu-eLys(1,2)] stands 10000 µg/mL; under `CC[C@H](C)[C@H](NC(=O)[C@H](CC(C)C)NC(=O)[C@H](Cc1c[nH]cn1)NC(=O)[C@H](CCCNC(=N)N)NC(=O)[C@@H](NC(=O)[C@H](Cc1ccccc1)NC(=O)[C@H](C)NC(=O)C(C)(C)NC(=O)[C@H](CCC(N)=O)NC(=O)[C@H](C)NC(=O)[C@H](CCC(N)=O)NC(=O)CNC(=O)[C@H](CCC(=O)O)NC(=O)[C@H](CC(C)C)NC(=O)C(C)(C)NC(=O)[C@@H](NC(=O)[C@H](CO)NC(=O)[C@H](Cc1ccc(O)cc1)NC(=O)[C@H](CC(=O)O)NC(=O)[C@H](CO)NC(=O)[C@@H](NC(=O)[C@H](Cc1ccccc1)NC(=O)[C@@H](NC(=O)CNC(=O)[C@H](CCC(=O)O)NC(=O)C(C)(C)NC(=O)[C@@H](N)Cc1ccc(O)cc1)[C@@H](C)O)[C@@H](C)O)[C@@H](C)CC)C(C)C)C(=O)N[C@@H](CC(N)=O)C(=O)N[C@@H](CCCCNC(=O)[C@@H](N)CCCCNC(=O)CC[C@H](NC(=O)CC[C@H](NC(=O)CC[C@H](NC(=O)CC[C@H](NC(=O)CC[C@H](NC(=O)CC[C@H](NC(=O)CCCCCCCCCCCCCCCCC(=O)O)C(=O)O)C(=O)O)C(=O)O)C(=O)O)C(=O)O)C(=O)O)C(=O)NC(C)(C)C(=O)N[C@H](C(=O)N[C@@H](CCCNC(=N)N)C(=O)N[C@@H](CCC(N)=O)C(=O)N[C@@H](CCCNC(=N)N)C(=O)N[C@@H](Cc1ccc(O)cc1)C(N)=O)[C@@H](C)O` [Compound 95, Y-Aib-E-G-T-F-T-S-D-Y-S-I-Aib-L-E-G-Q-A-Q-Aib-A-F-V-R-H-L-I-N-K(1,3)-Aib-T-R-Q-R-Y-NH2.C18DA-gGlu-gGlu-gGlu-gGlu-gGlu-gGlu-eLys(1,2)], 4400 µg/mL.

Still in this data set, the particulars now being: 0.1 M phosphate buffer at pH 7, 10 mg/mL final peptide concentration, shaking 2 hours at room temperature, peptides as TFA-salts; measured sample pH 6.5-7.0; read-out: Solubility.
Regarding `CC[C@H](C)[C@H](NC(=O)[C@H](CC(C)C)NC(=O)[C@H](Cc1c[nH]cn1)NC(=O)[C@H](CCCNC(=N)N)NC(=O)[C@@H](NC(=O)[C@H](Cc1ccccc1)NC(=O)[C@H](C)NC(=O)C(C)(C)NC(=O)[C@H](CCC(N)=O)NC(=O)[C@H](C)NC(=O)[C@H](CCC(N)=O)NC(=O)[C@H](CCC(=O)O)NC(=O)[C@H](CC(=O)O)NC(=O)[C@H](CC(C)C)NC(=O)C(C)(C)NC(=O)[C@@H](NC(=O)[C@H](CO)NC(=O)[C@H](Cc1ccc(O)cc1)NC(=O)[C@H](CC(=O)O)NC(=O)[C@H](CO)NC(=O)[C@@H](NC(=O)[C@H](Cc1ccccc1)NC(=O)[C@@H](NC(=O)CNC(=O)[C@H](CCC(=O)O)NC(=O)C(C)(C)NC(=O)[C@@H](N)Cc1ccc(O)cc1)[C@@H](C)O)[C@@H](C)O)[C@@H](C)CC)C(C)C)C(=O)N[C@@H](CC(N)=O)C(=O)N[C@@H](CCCCNC(=O)[C@@H](N)CCCCNC(=O)CC[C@H](NC(=O)[C@H](CCC(=O)O)NC(=O)CC[C@H](NC(=O)CC[C@H](NC(=O)CC[C@H](NC(=O)CC[C@H](NC(=O)CCCCCCCCCCCCCCCCC(=O)O)C(=O)O)C(=O)O)C(=O)O)C(=O)O)C(=O)O)C(=O)NC(C)(C)C(=O)N[C@H](C(=O)N[C@@H](CCCNC(=N)N)C(=O)N[C@@H](CCC(N)=O)C(=O)N[C@@H](CCCNC(=N)N)C(=O)N[C@@H](Cc1ccc(O)cc1)C(N)=O)[C@@H](C)O` [Compound 40, Y-Aib-E-G-T-F-T-S-D-Y-S-I-Aib-L-D-E-Q-A-Q-Aib-A-F-V-R-H-L-I-N-K(1,3)-Aib-T-R-Q-R-Y-NH2.C18DA-gGlu-gGlu-gGlu-gGlu-gGlu-gGlu-eLys(1,2)], the solubility was 9500 µg/mL. On the same count and under the same terms, in the case of `CC[C@H](C)[C@H](NC(=O)[C@H](CC(C)C)NC(=O)[C@H](Cc1c[nH]cn1)NC(=O)[C@H](CCCNC(=N)N)NC(=O)[C@@H](NC(=O)[C@H](Cc1ccccc1)NC(=O)[C@H](CCC(=O)O)NC(=O)C(C)(C)NC(=O)[C@H](CCC(N)=O)NC(=O)[C@H](C)NC(=O)[C@H](CCC(N)=O)NC(=O)[C@H](CCCCN)NC(=O)[C@H](CCC(=O)O)NC(=O)[C@H](CC(C)C)NC(=O)C(C)(C)NC(=O)[C@@H](NC(=O)[C@H](CO)NC(=O)[C@H](Cc1ccc(O)cc1)NC(=O)[C@H](CC(=O)O)NC(=O)[C@H](CO)NC(=O)[C@@H](NC(=O)[C@H](Cc1ccccc1)NC(=O)[C@@H](NC(=O)CNC(=O)[C@H](CCC(=O)O)NC(=O)C(C)(C)NC(=O)[C@@H](N)Cc1ccc(O)cc1)[C@@H](C)O)[C@@H](C)O)[C@@H](C)CC)C(C)C)C(=O)N[C@@H](CC(N)=O)C(=O)N[C@@H](CCCCNC(=O)CCCCCNC(=O)CC[C@H](NC(=O)[C@H](CCC(=O)O)NC(=O)CC[C@H](NC(=O)CC[C@H](NC(=O)CC[C@H](NC(=O)CCCCCCCCCCCCCCCCC(=O)O)C(=O)O)C(=O)O)C(=O)O)C(=O)O)C(=O)N[C@@H](CC(C)C)C(=O)N[C@H](C(=O)N[C@@H](CCCNC(=N)N)C(=O)N[C@@H](CCC(N)=O)C(=O)N[C@@H](CCCNC(=N)N)C(=O)N[C@@H](Cc1ccc(O)cc1)C(N)=O)[C@@H](C)O` [Compound 45, Y-Aib-E-G-T-F-T-S-D-Y-S-I-Aib-L-E-K-Q-A-Q-Aib-E-F-V-R-H-L-I-N-K(1,3)-L-T-R-Q-R-Y-NH2.C18DA-gGlu-gGlu-gGlu-gGlu-gGlu-AHX(1,2)] it was 5000 µg/mL; in that of `CC[C@H](C)[C@H](NC(=O)[C@H](CC(C)C)NC(=O)[C@H](Cc1c[nH]cn1)NC(=O)[C@H](CCCNC(=N)N)NC(=O)[C@@H](NC(=O)[C@H](Cc1ccccc1)NC(=O)[C@H](C)NC(=O)C(C)(C)NC(=O)[C@H](CCC(N)=O)NC(=O)[C@H](C)NC(=O)[C@H](CCC(N)=O)NC(=O)[C@H](CCCCN)NC(=O)[C@H](CCC(=O)O)NC(=O)[C@H](CC(C)C)NC(=O)C(C)(C)NC(=O)[C@@H](NC(=O)[C@H](CO)NC(=O)[C@H](Cc1ccc(O)cc1)NC(=O)[C@H](CC(=O)O)NC(=O)[C@H](CO)NC(=O)[C@@H](NC(=O)[C@H](Cc1ccccc1)NC(=O)[C@@H](NC(=O)CNC(=O)[C@H](CCC(=O)O)NC(=O)C(C)(C)NC(=O)[C@@H](N)Cc1ccc(O)cc1)[C@@H](C)O)[C@@H](C)O)[C@@H](C)CC)C(C)C)C(=O)N[C@@H](CC(N)=O)C(=O)N[C@@H](CCCCNC(=O)CC[C@H](NC(=O)CC[C@H](NC(=O)[C@@H](N)CCCCNC(=O)CC[C@H](NC(=O)CC[C@H](NC(=O)CC[C@H](NC(=O)CC[C@H](NC(=O)CCCCCCCCCCCCCCCCCCC(=O)O)C(=O)O)C(=O)O)C(=O)O)C(=O)O)C(=O)O)C(=O)O)C(=O)NC(C)(C)C(=O)N[C@H](C(=O)N[C@@H](CCCNC(=N)N)C(=O)N[C@@H](CCC(N)=O)C(=O)N[C@@H](CCCNC(=N)N)C(=O)N[C@@H](Cc1ccc(O)cc1)C(N)=O)[C@@H](C)O` [Compound 52, Y-Aib-E-G-T-F-T-S-D-Y-S-I-Aib-L-E-K-Q-A-Q-Aib-A-F-V-R-H-L-I-N-K(1,3)-Aib-T-R-Q-R-Y-NH2.C20DA-gGlu-gGlu-gGlu-gGlu-eLys-gGlu-gGlu(1,2)], 9400 µg/mL.

As usually defined, the solubility is the concentration that dissolves in the medium under given conditions.
